Activity calls are given as the source filed them. The rule behind the calls is not given here.
Assays:
MCF7 = experiment: Antiproliferative activity against human MCF7 cells assessed as cell viability incubated for 48 hrs by MTT assay; format: functional, cell-based; settings: MCF7, 48 h
[1] = Clearance in ICR mouse at 1 mg/kg, iv single administration measured for 24 hrs post treatment by LC-MS/MS analysis; format: ADME, organism-based; settings: in vivo
[2] = Selectivity ratio of IC50 for cytotoxicity against HLF cells assessed as reduction in cell viability to IC50 for cytotoxicity against human A549 cells assessed as reduction in cell viability; format: toxicity, cell-based; settings: HLF cells versus A549 cells
HCT-8 [3] = experiment: Antiproliferative activity against human HCT-8 cells assessed as inhibition of cell proliferation incubated for 2 hrs by CCK-8 assay; format: functional, cell-based; settings: DDE = dose-dependent effect
HCT-8 [4] = experiment: Antiproliferative activity against human vincristine-resistant HCT-8/VCR cells assessed as cell viability incubated for 48 hrs by MTT assay; format: functional, cell-based; settings: HCT-8, 48 h
A549 [5] = experiment: Cell cycle arrest in human A549 cells assessed as increase in accumulation in G2/M phase incubated for 24 to 48 hrs by PI staining based flow cytometry analysis; format: functional; settings: dose 5-20 nM, time 24-48 hrs, DDE = dose-dependent effect
[6] = AUC (0 to t) in ICR mouse at 1 mg/kg, iv single administration measured for 24 hrs post treatment by LC-MS/MS analysis; format: ADME, organism-based; settings: in vivo
A2780 = experiment: Antiproliferative activity against human paclitaxel-resistant A2780/TAX cells assessed as cell viability incubated for 48 hrs by MTT assay; format: functional, cell-based; settings: A2780, 48 h
Tubulin (Homo sapiens) [7] = molecular target: T1, Tubulin (Homo sapiens) (UniProt P68371+Q9H4B7+P0DPH7+P68366+Q13509+Q71U36+P04350+Q3ZCM7+P07437+P68363+Q9BQE3+Q6PEY2+Q13885+Q9BVA1+Q9BUF5); experiment: Inhibition of [3H]colchicine binding to tubulin (unknown origin) at 0.3725 uM by competitive binding assay relative to control; format: protein-complex assay
A549 [8] = experiment: In vivo antitumor activity against human A549 cells xenografted in athymic nude BALB/c mouse assessed as tumor weight at 10 mg/kg measured after 30 days (reference value: 1 gram); format: functional; settings: time 30 day
[9] = AUC (0 to infinity) in ICR mouse at 1 mg/kg, iv single administration measured for 24 hrs post treatment by LC-MS/MS analysis; format: ADME, organism-based; parameters: time 24 hrs, dose 1 mg/kg, route iv; settings: in vivo
[10] = Toxicity in athymic nude BALB/c mouse assessed as body weight loss at 10 mg/kg, ip measured for 30 days; format: organism-based; settings: in vivo, 720 h, time 30 day
[11] = MRT in ICR mouse at 1 mg/kg, iv single administration measured for 24 hrs post treatment by LC-MS/MS analysis; format: ADME, organism-based; settings: in vivo
A549 [12] = experiment: Resistance index, ratio of IC50 for antiproliferative activity against human adriamycin-resistant A549/ADR cells to IC50 for antiproliferative activity against human A549 cells; format: functional
[13] = Cytotoxicity against human MCF-10A cells assessed as reduction in cell viability; format: toxicity, cell-based
A549 [14] = experiment: Induction of ferroptosis in human A549 cells assessed as accumulation of intracellular ROS incubated for 24 hrs by DCFH-DA staining based fluorescence microscopy; format: functional, cell-based; settings: dose 5-10 nM, DDE = dose-dependent effect
[15] = Tmax in ICR mouse at 10 mg/kg, po single administration measured for 24 hrs post treatment by LC-MS/MS analysis; format: ADME, organism-based; settings: in vivo
[16] = Cytotoxicity against human L02 cells assessed as reduction in cell viability; format: toxicity, cell-based
A549 [17] = experiment: Induction of ferroptosis in human A549 cells assessed as depletion of GSH levels at 10 nM upto 12 hrs; format: functional, cell-based
HCT-8 [18] = experiment: Antiproliferative activity against human HCT-8 cells assessed as cell viability incubated for 48 hrs by MTT assay; format: functional, cell-based; settings: HCT-8, 48 h
[19] = Toxicity in human A549 cells xenografted in athymic nude BALB/c nude mouse assessed as morphological changes in kidney at 10 mg/kg, ip measured after 30 days by H and E staining based histological analysis; format: organism-based; settings: in vivo, 720 h, time 30 day
Tubulin (Homo sapiens) [20] = molecular target: T1, Tubulin (Homo sapiens); experiment: Induction of microtubule disruption in human A549 cells assessed as abnormal uncondensed cytoplasm at 5 to 20 uM incubated for 12 hrs by immunofluorescence based laser scanning confocal microscopic analysis; format: cell-based; settings: dose 5-20 µM
Tubulin = experiment: Inhibition of [3H]colchicine binding to tubulin (unknown origin) by competitive binding assay; format: protein-complex assay, Homo sapiens
Tubulin (Homo sapiens) [21] = molecular target: T1, Tubulin (Homo sapiens); experiment: Inhibition of [3H]colchicine binding to tubulin (unknown origin) at 2.5 uM by competitive binding assay relative to control; format: protein-complex assay
[22] = Resistance index, ratio of IC50 for antiproliferative activity against human paclitaxel-resistant A2780/TAX cells to IC50 for antiproliferative activity against human A2780 cells; format: functional
[23] = Toxicity in human A549 cells xenografted in athymic nude BALB/c nude mouse assessed as morphological changes in lung at 10 mg/kg, ip measured after 30 days by H and E staining based histological analysis; format: organism-based; settings: in vivo, 720 h, time 30 day
A549 [24] = experiment: Cell cycle arrest in human A549 cells assessed as downregulation of Cdc25C expression at 5 to 20 nM incubated for 24 to 48 hrs by Western blot analysis; format: functional, cell-based; settings: dose 5-20 nM, time 24-48 hrs
A549 [25] = experiment: Induction of apoptosis in human A549 cells assessed as early apoptotic cells at 200 nM after 24 hrs by annexin V-FITC/PI staining based flow cytometry analysis relative to control; format: functional
[26] = AUC (0 to t) in ICR mouse at 10 mg/kg, po single administration measured for 24 hrs post treatment by LC-MS/MS analysis; format: ADME, organism-based; settings: in vivo
A549 [27] = experiment: Induction of cell death in human A549 cells assessed as vanished mitochondrial cristae at 10 nM for 12 hrs by TEM analysis; format: functional, cell-based
[28] = Selectivity ratio of IC50 for cytotoxicity against human MCF-10A cells assessed as reduction in cell viability to IC50 for cytotoxicity against human A549 cells assessed as reduction in cell viability; format: toxicity, cell-based; settings: MCF-10A cells versus A549 cells
[29] = Toxicity in human A549 cells xenografted in athymic nude BALB/c nude mouse assessed as morphological changes in liver at 10 mg/kg, ip measured after 30 days by H and E staining based histological analysis; format: organism-based; settings: in vivo, 720 h, time 30 day
LoVo = experiment: Antiproliferative activity against human LoVo cells assessed as inhibition of cell proliferation incubated for 2 hrs by CCK-8 assay; format: functional, cell-based; settings: DDE = dose-dependent effect
[30] = Cytotoxicity against HLF cells assessed as reduction in cell viability; format: toxicity, cell-based; settings: human
A549 [31] = experiment: Antiproliferative activity against human adriamycin-resistant A549/ADR cells assessed as cell viability incubated for 48 hrs by MTT assay; format: functional, cell-based; settings: A549, 48 h
[32] = Cytotoxicity against HUVEC cells assessed as reduction in cell viability; format: toxicity, cell-based; settings: human
A549 [33] = experiment: Induction of apoptosis in human A549 cells assessed as cell viability pretreated with ferroptosis inhibitor ferrostatin-1 for 24 hrs followed by incubation with compound at 20 nM and measured after 48 hrs by CCK-8 assay; format: functional, cell-based
Tubulin (Homo sapiens) [34] = molecular target: T1, Tubulin (Homo sapiens); experiment: Induction of microtubule disruption in human A549 cells assessed as abnormal chromosomes at 5 to 20 uM incubated for 12 hrs by immunofluorescence based laser scanning confocal microscopic analysis; format: cell-based; settings: dose 5-20 µM
[35] = Cmax in ICR mouse at 1 mg/kg, iv single administration measured for 24 hrs post treatment by LC-MS/MS analysis; format: ADME, organism-based; parameters: time 24 hrs, dose 1 mg/kg, route iv; settings: in vivo

Structure (SMILES): C=C(c1cc(OC)c(OC)c(OC)c1)c1ccc(OC)c(O)c1NC(=O)CO
- IC50 (MCF7): 50 nM
- clearance [1]: 47.6 mL/min/kg
- selectivity ratio [2]: 135
- Activity (HCT-8 [3]): Dde
- IC50 (HCT-8 [4]): 70 nM
- Activity (A549 [5]): Dde
- AUCt [6]: 350.19 h/ng/mL
- IC50 (A2780): 40 nM
- inhibition (Tubulin (Homo sapiens) [7]): 4.07%
- Activity (A549 [8]): 0.2 g
- AUC [9]: 353.02 h/ng/mL
- Activity [10]: Non-Toxic
- MRT [11]: 40.8 min
- Ratio IC50 (A549 [12]): 2
- IC50 [13]: 540 nM
- Activity (A549 [14]): Dde
- Tmax [15]: 15 min
- IC50 [16]: 1450 nM
- Activity (A549 [17]): Active
- IC50 (HCT-8 [18]): 40 nM
- Activity [19]: Non-Toxic
- Activity (Tubulin (Homo sapiens) [20]): Active
- IC50 (Tubulin): 1130 nM
- inhibition (Tubulin (Homo sapiens) [21]): 64.8%
- Ratio IC50 [22]: 2
- Activity [23]: Non-Toxic
- Activity (A549 [24]): Active
- Activity (A549 [25]): 50.36%
- AUCt [26]: 2432.04 h/ng/mL
- Activity (A549 [27]): Active
- selectivity ratio [28]: 54
- Activity [29]: Non-Toxic
- Activity (LoVo): Dde
- IC50 [30]: 1320 nM
- IC50 (A549 [31]): 20 nM
- IC50 [32]: 40 nM
- Activity (A549 [33]): Active
- Activity (Tubulin (Homo sapiens) [34]): Active
- Cmax [35]: 871 ng/mL

From ChEMBL document CHEMBL5154799, “Discovery of a Novel Stilbene Derivative as a Microtubule Targeting Agent Capable of Inducing Cell Ferroptosis” (J Med Chem, 2022)
